Measured values reported in PMC3914206.

What was measured:
Type in all cases: binding
Parameters in all cases: KINOMEscan: ABL1(F317L)-phosphorylated / KINOMEscan: ABL1(H396P)-nonphosphorylated / KINOMEscan: ABL1(H396P)-phosphorylated / KINOMEscan: ABL1(M351T)-phosphorylated / KINOMEscan: ABL1(T315I)-phosphorylated / KINOMEscan: ABL1-nonphosphorylated / KINOMEscan: ABL1-phosphorylated / KINOMEscan: ACVR2A / KINOMEscan: ACVR2B / KINOMEscan: ADCK3 / KINOMEscan: ADCK4 / KINOMEscan: AKT1 / KINOMEscan: AKT3 / KINOMEscan: ALK / KINOMEscan: ARK5 / KINOMEscan: AURKA / KINOMEscan: AURKC / KINOMEscan: BIKE / KINOMEscan: BMPR1A / KINOMEscan: BMPR1B / KINOMEscan: BMX / KINOMEscan: BRK / KINOMEscan: BRSK1 / KINOMEscan: BRSK2 / KINOMEscan: CAMK1 / KINOMEscan: CAMK1D / KINOMEscan: CAMK1G / KINOMEscan: CAMK2A / KINOMEscan: CAMK2B / KINOMEscan: AAK1 / KINOMEscan: CAMK2D / KINOMEscan: CAMK2G / KINOMEscan: ABL1(F317I)-nonphosphorylated / KINOMEscan: ABL1(F317I)-phosphorylated / KINOMEscan: ABL1(F317L)-nonphosphorylated: unit: % Ctrl
[1] = target: T1, panel of 442 kinases (Homo sapiens, UniProt P00519, F317I); settings: Compound Concentration 10 µM
T1 construct: purchased KINOMEscan
T1 sequence (P00519 whole entry F317I): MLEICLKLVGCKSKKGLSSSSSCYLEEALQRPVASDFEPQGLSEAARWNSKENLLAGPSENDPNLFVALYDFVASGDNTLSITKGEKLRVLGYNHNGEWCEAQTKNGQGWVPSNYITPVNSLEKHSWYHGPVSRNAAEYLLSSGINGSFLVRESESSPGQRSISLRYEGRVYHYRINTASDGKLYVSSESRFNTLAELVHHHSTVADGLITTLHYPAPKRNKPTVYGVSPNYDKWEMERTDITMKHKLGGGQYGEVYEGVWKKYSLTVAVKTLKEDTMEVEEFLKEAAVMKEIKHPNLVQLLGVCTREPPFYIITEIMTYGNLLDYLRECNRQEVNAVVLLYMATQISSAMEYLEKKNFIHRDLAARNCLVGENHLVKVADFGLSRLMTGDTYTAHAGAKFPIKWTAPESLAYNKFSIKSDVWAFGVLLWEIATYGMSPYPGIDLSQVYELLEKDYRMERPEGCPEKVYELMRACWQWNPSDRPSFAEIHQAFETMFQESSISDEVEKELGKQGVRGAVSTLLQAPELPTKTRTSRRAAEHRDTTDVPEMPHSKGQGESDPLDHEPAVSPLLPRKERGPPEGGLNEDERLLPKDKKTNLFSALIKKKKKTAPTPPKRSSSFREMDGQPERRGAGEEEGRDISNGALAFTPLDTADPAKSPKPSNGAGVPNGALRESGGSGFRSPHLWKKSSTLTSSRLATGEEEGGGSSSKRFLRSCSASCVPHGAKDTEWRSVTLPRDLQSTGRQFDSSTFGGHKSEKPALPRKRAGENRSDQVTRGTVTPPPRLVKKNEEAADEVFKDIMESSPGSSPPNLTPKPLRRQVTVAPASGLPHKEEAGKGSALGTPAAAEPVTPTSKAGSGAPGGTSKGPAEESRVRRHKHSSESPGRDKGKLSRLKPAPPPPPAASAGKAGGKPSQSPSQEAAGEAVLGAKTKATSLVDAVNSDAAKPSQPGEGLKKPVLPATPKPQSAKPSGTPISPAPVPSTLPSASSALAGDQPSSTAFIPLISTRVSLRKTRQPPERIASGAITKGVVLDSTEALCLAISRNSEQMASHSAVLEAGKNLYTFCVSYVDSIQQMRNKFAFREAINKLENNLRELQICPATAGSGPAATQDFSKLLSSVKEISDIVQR
Source text: (§1) We assessed the selectivity of members of this scaffold using the KINOMEscan methodology across a near comprehensive panel of 442 kinases [[18,27]].

[2] = target: T2, panel of 442 kinases (Homo sapiens, UniProt Q02763); settings: kinase TIE2; compound concentration 10 µM
T2 construct: purchased KINOMEscan
T2 sequence (Q02763 23-1124): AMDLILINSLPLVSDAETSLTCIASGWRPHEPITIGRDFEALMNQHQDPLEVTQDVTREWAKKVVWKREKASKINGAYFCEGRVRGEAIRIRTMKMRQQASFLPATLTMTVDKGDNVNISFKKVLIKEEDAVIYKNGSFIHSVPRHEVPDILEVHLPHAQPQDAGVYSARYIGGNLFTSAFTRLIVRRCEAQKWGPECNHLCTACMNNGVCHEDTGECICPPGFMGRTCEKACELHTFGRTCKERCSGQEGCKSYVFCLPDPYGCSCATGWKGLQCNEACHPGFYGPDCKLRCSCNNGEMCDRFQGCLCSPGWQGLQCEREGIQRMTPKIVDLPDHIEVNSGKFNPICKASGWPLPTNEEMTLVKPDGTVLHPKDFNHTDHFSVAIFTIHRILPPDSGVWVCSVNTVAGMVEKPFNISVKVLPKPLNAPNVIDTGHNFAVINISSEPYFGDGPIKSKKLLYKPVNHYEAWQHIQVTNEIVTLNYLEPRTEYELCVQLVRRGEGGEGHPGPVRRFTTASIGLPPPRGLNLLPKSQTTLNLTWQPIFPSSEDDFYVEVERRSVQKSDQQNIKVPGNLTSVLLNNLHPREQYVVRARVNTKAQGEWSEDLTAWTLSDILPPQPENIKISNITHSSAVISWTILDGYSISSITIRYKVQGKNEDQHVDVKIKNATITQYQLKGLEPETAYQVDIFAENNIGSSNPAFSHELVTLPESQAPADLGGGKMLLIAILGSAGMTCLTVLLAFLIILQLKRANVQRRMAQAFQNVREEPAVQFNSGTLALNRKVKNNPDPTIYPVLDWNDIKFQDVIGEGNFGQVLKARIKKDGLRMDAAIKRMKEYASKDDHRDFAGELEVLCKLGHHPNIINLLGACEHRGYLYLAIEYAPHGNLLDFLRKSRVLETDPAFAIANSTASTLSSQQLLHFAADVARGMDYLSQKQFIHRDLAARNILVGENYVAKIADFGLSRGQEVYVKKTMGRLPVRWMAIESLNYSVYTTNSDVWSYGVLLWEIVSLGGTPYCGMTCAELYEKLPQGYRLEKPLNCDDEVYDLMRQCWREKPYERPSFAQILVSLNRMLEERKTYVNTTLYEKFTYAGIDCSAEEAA
Source text: as §1

[3] = target: T3, panel of 442 kinases (Homo sapiens, UniProt Q14164); settings: Compound Concentration 10 µM
T3 construct: purchased KINOMEscan
T3 sequence (Q14164 1-716): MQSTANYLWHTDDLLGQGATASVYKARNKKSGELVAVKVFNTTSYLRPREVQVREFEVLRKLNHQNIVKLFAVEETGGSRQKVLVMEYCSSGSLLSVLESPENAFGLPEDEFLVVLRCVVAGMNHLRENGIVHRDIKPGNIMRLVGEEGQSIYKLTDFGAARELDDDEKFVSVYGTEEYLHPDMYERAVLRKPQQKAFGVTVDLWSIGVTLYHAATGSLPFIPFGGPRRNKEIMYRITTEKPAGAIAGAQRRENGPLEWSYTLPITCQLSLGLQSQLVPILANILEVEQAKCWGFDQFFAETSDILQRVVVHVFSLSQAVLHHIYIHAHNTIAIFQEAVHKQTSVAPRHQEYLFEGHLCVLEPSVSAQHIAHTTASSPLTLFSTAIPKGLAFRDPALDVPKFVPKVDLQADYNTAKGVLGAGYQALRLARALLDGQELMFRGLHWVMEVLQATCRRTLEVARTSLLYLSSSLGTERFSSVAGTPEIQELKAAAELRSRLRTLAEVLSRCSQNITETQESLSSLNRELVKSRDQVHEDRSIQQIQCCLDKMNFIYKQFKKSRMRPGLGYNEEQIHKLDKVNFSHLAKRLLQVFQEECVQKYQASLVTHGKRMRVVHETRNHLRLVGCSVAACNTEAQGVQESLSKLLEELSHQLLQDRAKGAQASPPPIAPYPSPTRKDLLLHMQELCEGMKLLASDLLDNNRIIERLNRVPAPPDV
Source text: as §1

Compound	KINOMEscan: ABL1(F317I)-nonphosphorylated [1]	KINOMEscan: ABL1(F317I)-phosphorylated [1]	% Ctrl, TIE2 [2]	KINOMEscan: IKK-epsilon [3]
COc1cc(C(=O)N2CCC(N3CCN(C)CC3)CC2)ccc1Nc1ncc2c(n1)N(C)c1ccccc1C(=O)N2C [15 (LRRK2-IN-1)]	15	17	100 % Ctrl	96
COc1cc(C(=O)N2CCC(N3CCN(C)CC3)CC2)ccc1Nc1ncc2c(n1)N1CCc3cccc(c31)C(=O)N2C [Compound 24]	17	24	79 % Ctrl	–
COc1cc(C(=O)N2CCC(N3CCN(C)CC3)CC2)ccc1Nc1ncc2c(n1)N(C1CCCC1)c1ccccc1C(=O)N2C [Compound 25, 11-cyclopentyl-2-((2-methoxy-4-(4-(4-methylpiperazin-1-yl)piperidine-1-carbonyl)phenyl)amino)-5-methyl-5H-benzo[e]pyrimido[5,4-b][1,4]diazepin-6(11H)-one]	26	29	100 % Ctrl	100
CCOc1cc(C(=O)N2CCC(N3CCN(C)CC3)CC2)ccc1Nc1ncc2c(n1)N(C1CCCC1)c1ccccc1C(=O)N2C [Compound 26]	51	64	100 % Ctrl	100
